One test concerns the target HIF-1α (Homo sapiens, UniProt Q16665). The test is described as follows: Western blot of HIF-1α protein in hypoxic HEK-293 cells. It counts as cell-based. The note with it: HEK293, 1 nM, hypoxia 16 h, read-out: downregulation of HIF-1α protein expression.
In test [1] the test system is hydroxylated (OH)-HIF-1α at P402 or P564, PHD2, HIF-1β. As to the kind of experiment: Western blot of hydroxylated HIF-1α, PHD2 and HIF-1β in A549 cells. It counts as cell-based, human. The conditions noted are these: 1–100 nM, 16 h. The method, then: Figure 4 Compound 12 increased hydroxylation and proteasome-mediated degradation of HIF-1α (A) A549 cells were treated with Compound 12 (at concentrations of 0 nM, 1 nM, 10 nM, and 100 nM) for 16 h. Cells were fixed with paraformaldehyde; an immunofluorescence assay was then performed using anti-HIF-1α antibodies and Alexa Fluor 488-labeled secondary antibodies (green). Nuclei were stained with DAPI. N, normoxia; H, hypoxia. (B) A549 cells were treated with Compound 12 (10 nM concentration) and exposed to hypoxic conditions for 16 h. Cells were immediately treated with cycloheximide (CHX, 100 μg/mL) for the time indicated, and HIF-1α protein levels were determined by western blotting. β-actin was used as an internal control. Half-life (t1/2) of HIF-1α protein was determined using relative expression levels of HIF-1α. (C) A549 cells were treated with Compound 12 (at concentrations of 0 nM, 1 nM, 10 nM, and 100 nM) for 16 h. The expression levels of HIF-1α, hydroxylated (OH)-HIF-1α at P402 or P564, and PHD2 were determined via western blotting using specific antibodies. N, normoxia; H, hypoxia. (D) A549 cells were transfected with two kinds of small interfering RNAs targeting PHD2 and then treated with Compound 12 under hypoxic exposure for 16 h. Cell lysates were immunoblotted with an anti-HIF-1α and PHD2 antibody. (E) After A549 cells were treated with Compound 12 for 16 h, cells were treated with MG132 (20 μM) for 4 h. Cell lysates were immunoprecipitated (IP) with anti-HIF-1α antibody, and were then immunoblotted (IB) with anti-ubiquitin antibody. Relative levels of ubiquitinated HIF-1α were quantified and graphed. […]
Proteins extracted from cells using PRO-PREP (iNtRon Biotech, South Korea) were separated by SDS-PAGE and transferred to a nitrocellulose membrane (Whatman, Maidstone, UK). […] Antibody binding was detected using an enhanced chemiluminescence (ECL) kit (BioRad, Hercules, CA) according to the manufacturer's instructions. […]
(In general: Immunoblotting shows a protein as a band on a membrane.)

HIF-1α, sequence (Q16665 whole entry): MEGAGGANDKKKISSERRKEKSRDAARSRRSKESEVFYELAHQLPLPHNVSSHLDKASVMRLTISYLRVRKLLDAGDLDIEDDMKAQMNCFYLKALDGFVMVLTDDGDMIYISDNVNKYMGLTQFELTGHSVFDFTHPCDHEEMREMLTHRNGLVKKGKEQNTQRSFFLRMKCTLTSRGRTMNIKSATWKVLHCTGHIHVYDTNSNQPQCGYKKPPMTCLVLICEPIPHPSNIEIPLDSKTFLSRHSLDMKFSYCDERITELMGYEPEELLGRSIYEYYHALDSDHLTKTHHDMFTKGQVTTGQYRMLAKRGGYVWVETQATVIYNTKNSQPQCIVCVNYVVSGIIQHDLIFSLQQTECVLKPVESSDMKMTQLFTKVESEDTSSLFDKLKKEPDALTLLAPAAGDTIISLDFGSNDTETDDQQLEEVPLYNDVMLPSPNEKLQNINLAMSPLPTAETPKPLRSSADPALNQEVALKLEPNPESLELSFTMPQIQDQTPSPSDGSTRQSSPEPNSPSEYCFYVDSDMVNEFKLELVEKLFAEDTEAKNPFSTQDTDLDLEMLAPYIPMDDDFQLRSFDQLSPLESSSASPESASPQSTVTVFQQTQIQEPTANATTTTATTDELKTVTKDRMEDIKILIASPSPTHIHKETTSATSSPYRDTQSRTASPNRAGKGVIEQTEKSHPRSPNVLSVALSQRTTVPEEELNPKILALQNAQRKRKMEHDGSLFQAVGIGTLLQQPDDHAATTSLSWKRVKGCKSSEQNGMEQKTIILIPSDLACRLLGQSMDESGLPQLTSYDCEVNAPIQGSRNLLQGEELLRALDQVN

`COc1ccc(-c2cn(CC3(C)C=Cc4cc([N+](=O)[O-])ccc4O3)nn2)cc1` (stereo not shown) [Compound 12, 4-(4-methoxyphenyl)-1-((2-methyl-6-nitro-2H-chromen-2-yl)methyl)-1H-1,2,3-triazole]: the inhibition at 0.001 µM at HIF-1α was roughly 30%. Also, in test [1], the HIF-1β expression result was “did not inhibit”; the PHD2 levels result was “increased even at the lowest dose (1 nM)”; the “hydroxylation of HIF-1α (P402, P564)” value is “increased hydroxylation of HIF-1α in a dose-dependent manner”.

Values taken from paper PMC5352362, “Molecular and functional evaluation of a novel HIF inhibitor, benzopyranyl 1,2,3-triazole compound” (Oncotarget, 2016).
